Where two headings read alike, the source gives them in different places.

One data set deals with T1, FGFR3 (K650E) (Homo sapiens, UniProt P22607, K650E).
T1 construct: amino acids 411-806 of the cytoplasmic domain of human FGFR-3, N-terminally fused to GST; made in house; host or cells: Sf9 insect cells (baculovirus)
In words: Recombinant GST-FGFR-3-K650E tyrosine kinase assay (33P into poly(Glu,Tyr)). The class given is biochemical.

The target of the next data set is T2, Tek (Homo sapiens, UniProt Q02763).
T2 construct: amino acids 773-1124 of the cytoplasmic kinase domain of human Tek, N-terminally fused to GST; made in house; host or cells: Sf9 insect cells (baculovirus)
In words: Recombinant GST-Tek (Tie-2) tyrosine kinase assay (33P into poly(Glu,Tyr)). Format: biochemical. As to conditions: Examples 1 to 169. The gist of the method: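 Read-out is filter-bound 33P in poly(Glu,Tyr) 4:1 (10 μg/mL) after 30 min at ambient temperature with 4.0 μM ATP. Enzyme: 150 ng human GST-Tek (aa 773-1124) from insect cells, in Tris pH 7.5 with Mn2+/Mg2+ and vanadate. IC50 fitted linearly over four concentrations, usually 0.01-10 μM.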

The next data set concerns the target T3, KDR (Homo sapiens, UniProt P35968).
T3 construct: expressed in transfected cells; host or cells: CHO cells
Nature of the data set: Inhibitory activity against KDR (VEGF-R2), in vitro data of Examples 170 and 207. The class given is biochemical. As to conditions: read-out: KDR inhibition at 10 μM. The gist of the method:
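KDR tyrosine phosphorylation detected by luminescence after overnight 4° C capture of 20 μg lysate protein with PY20:AP antibody. Lysates came from cells given compound for 2 h at 37° C, then final 20 ng/ml VEGF for 5 min; compound-free medium as control.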

For the next data set, the target named is c-Abl (Homo sapiens, UniProt P00519). Nature of the data set: Inhibitory activity against c-Abl (Example 207). The class given is biochemical. As to conditions: Examples 171 to 206.
Where [1] appears, read: 10 μM, Examples 1 to 169, read-out: FGFR3 (K650E) inhibition at 10 μM.
Where [2] appears, read: read-out: FGFR3 (K650E) inhibition at 10 μM.
Where [3] appears, read: 10 μM, Examples 171 to 206, read-out: FGFR3 inhibition at 10 μM.

T3 sequence (P35968 20-1356): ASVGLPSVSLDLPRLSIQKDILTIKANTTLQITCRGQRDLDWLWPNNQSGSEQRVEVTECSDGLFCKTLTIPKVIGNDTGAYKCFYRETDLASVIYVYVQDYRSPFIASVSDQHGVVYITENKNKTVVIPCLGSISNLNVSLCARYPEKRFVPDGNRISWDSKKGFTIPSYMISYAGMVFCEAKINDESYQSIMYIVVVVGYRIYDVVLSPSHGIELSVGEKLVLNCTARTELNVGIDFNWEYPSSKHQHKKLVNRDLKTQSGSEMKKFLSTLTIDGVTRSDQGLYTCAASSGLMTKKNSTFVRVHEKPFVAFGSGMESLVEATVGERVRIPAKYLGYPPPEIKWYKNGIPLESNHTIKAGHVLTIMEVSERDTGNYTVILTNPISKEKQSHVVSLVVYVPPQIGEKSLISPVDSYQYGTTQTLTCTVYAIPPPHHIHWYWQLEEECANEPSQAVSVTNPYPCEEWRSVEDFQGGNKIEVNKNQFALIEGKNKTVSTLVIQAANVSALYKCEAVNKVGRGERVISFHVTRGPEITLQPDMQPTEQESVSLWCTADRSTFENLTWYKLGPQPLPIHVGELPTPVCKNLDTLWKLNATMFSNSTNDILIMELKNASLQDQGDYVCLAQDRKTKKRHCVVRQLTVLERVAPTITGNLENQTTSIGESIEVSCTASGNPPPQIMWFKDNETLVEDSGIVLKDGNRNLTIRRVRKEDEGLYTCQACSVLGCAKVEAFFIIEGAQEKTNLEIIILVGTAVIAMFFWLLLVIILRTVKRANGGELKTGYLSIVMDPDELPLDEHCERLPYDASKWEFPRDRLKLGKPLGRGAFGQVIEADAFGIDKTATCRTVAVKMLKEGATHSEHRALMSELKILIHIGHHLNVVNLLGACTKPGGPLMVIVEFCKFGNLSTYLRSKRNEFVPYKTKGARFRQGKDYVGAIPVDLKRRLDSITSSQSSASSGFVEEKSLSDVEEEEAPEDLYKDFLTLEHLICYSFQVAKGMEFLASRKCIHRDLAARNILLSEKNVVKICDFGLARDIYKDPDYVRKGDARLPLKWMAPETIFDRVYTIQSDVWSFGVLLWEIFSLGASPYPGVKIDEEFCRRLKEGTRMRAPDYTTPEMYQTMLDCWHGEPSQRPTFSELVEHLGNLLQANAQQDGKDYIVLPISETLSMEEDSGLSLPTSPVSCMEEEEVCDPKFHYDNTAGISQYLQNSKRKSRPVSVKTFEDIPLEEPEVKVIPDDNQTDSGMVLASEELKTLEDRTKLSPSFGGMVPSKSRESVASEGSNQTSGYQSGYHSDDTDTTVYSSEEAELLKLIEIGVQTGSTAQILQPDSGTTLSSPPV
T1 sequence (P22607 411-806 K650E): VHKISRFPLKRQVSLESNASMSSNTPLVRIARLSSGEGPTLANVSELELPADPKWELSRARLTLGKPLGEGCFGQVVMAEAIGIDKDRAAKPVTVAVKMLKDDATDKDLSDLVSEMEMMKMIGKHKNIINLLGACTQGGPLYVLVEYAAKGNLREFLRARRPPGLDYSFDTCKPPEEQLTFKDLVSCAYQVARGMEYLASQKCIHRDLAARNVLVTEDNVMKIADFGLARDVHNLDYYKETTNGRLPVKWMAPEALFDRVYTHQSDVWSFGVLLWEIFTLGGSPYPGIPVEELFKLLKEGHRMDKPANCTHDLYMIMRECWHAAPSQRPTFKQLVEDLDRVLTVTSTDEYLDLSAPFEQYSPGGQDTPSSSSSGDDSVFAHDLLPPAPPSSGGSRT
T2 sequence (Q02763 773-1124): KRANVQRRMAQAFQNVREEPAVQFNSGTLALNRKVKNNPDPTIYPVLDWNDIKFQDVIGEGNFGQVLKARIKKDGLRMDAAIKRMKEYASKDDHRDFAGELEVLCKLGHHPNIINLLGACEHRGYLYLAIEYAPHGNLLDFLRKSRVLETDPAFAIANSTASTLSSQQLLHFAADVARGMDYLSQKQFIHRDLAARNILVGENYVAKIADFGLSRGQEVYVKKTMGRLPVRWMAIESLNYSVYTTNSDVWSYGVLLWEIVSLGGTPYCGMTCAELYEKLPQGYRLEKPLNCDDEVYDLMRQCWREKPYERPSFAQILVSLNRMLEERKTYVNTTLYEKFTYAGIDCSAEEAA
Sequence of c-Abl (P00519 whole entry): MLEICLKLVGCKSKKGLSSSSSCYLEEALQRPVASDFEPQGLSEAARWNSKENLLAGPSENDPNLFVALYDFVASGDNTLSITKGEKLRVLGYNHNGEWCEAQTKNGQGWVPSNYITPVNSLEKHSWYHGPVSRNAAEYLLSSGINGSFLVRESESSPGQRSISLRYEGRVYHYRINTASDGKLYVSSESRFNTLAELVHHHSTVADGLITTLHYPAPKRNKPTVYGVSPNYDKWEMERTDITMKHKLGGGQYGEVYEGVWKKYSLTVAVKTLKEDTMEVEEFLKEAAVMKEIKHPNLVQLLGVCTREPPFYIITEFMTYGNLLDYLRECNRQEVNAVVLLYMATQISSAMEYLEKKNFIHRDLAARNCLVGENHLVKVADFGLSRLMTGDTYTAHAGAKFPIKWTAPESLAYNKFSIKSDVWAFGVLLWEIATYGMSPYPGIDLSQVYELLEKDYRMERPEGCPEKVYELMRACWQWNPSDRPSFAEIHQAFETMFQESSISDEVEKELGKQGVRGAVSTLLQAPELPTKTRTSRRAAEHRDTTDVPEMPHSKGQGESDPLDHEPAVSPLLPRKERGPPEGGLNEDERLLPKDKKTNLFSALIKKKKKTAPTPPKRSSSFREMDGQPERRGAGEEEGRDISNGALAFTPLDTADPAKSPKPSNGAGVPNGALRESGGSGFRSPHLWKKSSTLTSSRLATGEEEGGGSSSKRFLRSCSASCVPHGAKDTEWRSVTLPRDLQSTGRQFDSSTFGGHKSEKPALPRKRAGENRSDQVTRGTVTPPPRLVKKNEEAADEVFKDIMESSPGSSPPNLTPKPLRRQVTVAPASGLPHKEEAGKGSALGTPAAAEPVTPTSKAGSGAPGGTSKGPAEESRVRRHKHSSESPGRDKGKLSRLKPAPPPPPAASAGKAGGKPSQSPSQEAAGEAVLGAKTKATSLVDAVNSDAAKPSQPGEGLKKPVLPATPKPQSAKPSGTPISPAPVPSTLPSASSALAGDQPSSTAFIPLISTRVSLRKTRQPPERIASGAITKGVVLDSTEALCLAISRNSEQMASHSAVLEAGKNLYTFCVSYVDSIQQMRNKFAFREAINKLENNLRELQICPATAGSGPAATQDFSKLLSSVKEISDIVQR

For orientation: inhibition means the change of the read-out against control, counted positive when it falls. Usually melting point stands for the temperature of the solid-liquid transition. On to `CN1CCN(c2ccc(Nc3cc(NC(=O)Nc4ccc(Cl)c(Cl)c4)ncn3)cc2)CC1` [Example 75, 1-(3,4-Dichloro-phenyl)-3-{6-[4-(4-methyl-piperazin-1-yl)-phenylamino]-pyrimidin-4-yl}-urea], for which the melting point lay within 260 to 262 °C. The inhibition at 10 µM at FGFR3 (K650E) (setting [1]) lay within 27 to 100%. The inhibition at 10 µM on Tek fell in the range of 12 to 100%. The inhibition at 10 µM on KDR (10 μM, Examples 1 to 169) fell in the range of 67 to 100%.

For the compound `CN1CCN(c2ccc(N(C(=O)Nc3cccc(Cl)c3Cl)c3cc(N)ncn3)cc2)CC1` [Example 76, 1-(6-Amino-pyrimidin-4-yl}-3-(2,3-dichloro-phenyl)-1-[4-(4-methyl-piperazin-1-yl)-phenyl]-urea], the melting point is 280 to 282 °C. In addition, on FGFR3 (K650E) (setting [1]), the inhibition at 10 µM lay in the range of 27 to 100%. Further, the inhibition at 10 µM on Tek was 12 to 100%. For the same compound, the inhibition at 10 µM on KDR (10 μM, Examples 1 to 169) fell in the range of 67 to 100%.

Turning to `CN1CCN(c2ccc(Nc3cc(NC(=O)Nc4cccc(Cl)c4Cl)ncn3)cc2)CC1` [Example 77, 1-(2,3-Dichloro-Phenyl)-3-{6-[4-(4-methyl-piperazin-1-yl)-phenylamino]-pyrimidin-4-yl}-urea], the melting point lay in the range of 279 to 281 °C. Further, the inhibition at 10 µM on FGFR3 (K650E) (setting [1]) lay within 27 to 100%. Also, the inhibition at 10 µM on Tek fell in the range of 12 to 100%. Besides, the inhibition at 10 µM on KDR (10 μM, Examples 1 to 169) fell in the range of 67 to 100%.

With `Cc1cccc(Cl)c1NC(=O)Nc1cc(Nc2cccc(OCC3CCN(C)CC3)c2)ncn1` [Example 79, 1-(2-Chloro-6-methyl-phenyl)-3-{6-[3-(1-methyl-piperidin-4-ylmethoxy)-phenylamino]-pyrimidin-4-yl}-urea], the melting point was 200 to 204 °C. The inhibition at 10 µM at FGFR3 (K650E) (setting [1]) lay in the range of 27 to 100%. In addition, the inhibition at 10 µM at Tek lay within 12 to 100%. Also, the inhibition at 10 µM at KDR (10 μM, Examples 1 to 169) lay in the range of 67 to 100%.

Compound `CN1CCC(COc2cccc(Nc3cc(NC(=O)Nc4c(Cl)cccc4Cl)ncn3)c2)CC1` [Example 80, 1-(2,6-Dichloro-Phenyl)-3-{6-[3-(1-methyl-piperidin-4-ylmethoxy)-phenylamino]-pyrimidin-4-yl}-urea] came in with a melting point of 198 to 200 °C. In addition, at FGFR3 (K650E) (setting [1]), the inhibition at 10 µM lay in the range of 27 to 100%. In addition, the inhibition at 10 µM on Tek is 12 to 100%. Moreover, the inhibition at 10 µM at KDR (10 μM, Examples 1 to 169) fell in the range of 67 to 100%.

`CN1CCC(COc2cccc(Nc3cc(NC(=O)Nc4c(Cl)cc(Cl)cc4Cl)ncn3)c2)CC1` [Example 81, 1-{6-[3-(1-Methyl-piperidin-4-ylmethoxy)-phenylamino]-pyrimidin-4-yl}-3-(2,4,6-trichloro-phenyl)-urea] returned a melting point of 222 to 225 °C. Also, the inhibition at 10 µM on FGFR3 (K650E) (setting [1]) lay in the range of 27 to 100%. The inhibition at 10 µM at Tek is 12 to 100%. Also, at KDR (10 μM, Examples 1 to 169), the inhibition at 10 µM was 67 to 100%.

Turning to `Cc1cccc(Cl)c1NC(=O)Nc1cc(Nc2ccc(CN3CCN(C)CC3)cc2)ncn1` [Example 82, 1-(2-Chloro-6-methyl-phenyl)-3-{6-[4-(4-methyl-piperazin-1-ylmethyl)-phenylamino]-pyrimidin-4-yl}-urea], the melting point lay within 199 to 201 °C. Besides, the inhibition at 10 µM at FGFR3 (K650E) (setting [1]) lay within 27 to 100%. The inhibition at 10 µM at Tek lay in the range of 12 to 100%. The inhibition at 10 µM at KDR (10 μM, Examples 1 to 169) is 67 to 100%.

Turning to `CN1CCN(Cc2ccc(Nc3cc(NC(=O)Nc4c(Cl)cccc4Cl)ncn3)cc2)CC1` [Example 83, 1-(2,6-Dichloro-Phenyl)-3-{6-[4-(4-methyl-piperazin-1-ylmethyl)-phenylamino]-pyrimidin-4-yl}-urea], the melting point fell in the range of 199 to 201 °C. Also, the inhibition at 10 µM at FGFR3 (K650E) (setting [1]) was in the range of 27 to 100%. At Tek, the inhibition at 10 µM was 12 to 100%. On KDR (10 μM, Examples 1 to 169), the inhibition at 10 µM was 67 to 100%.

As to `CN1CCN(Cc2ccc(Nc3cc(NC(=O)Nc4c(Cl)cc(Cl)cc4Cl)ncn3)cc2)CC1` [Example 84, 1-{6-[4-(4-Methyl-piperazin-1-ylmethyl)-phenylamino]-pyrimidin-4-yl}-3-(2,4,6-trichloro-phenyl)-urea], the melting point lay within 194 to 196 °C. In addition, on FGFR3 (K650E) (setting [1]), the inhibition at 10 µM is 27 to 100%. Moreover, the inhibition at 10 µM on Tek was 12 to 100%. Moreover, the inhibition at 10 µM on KDR (10 μM, Examples 1 to 169) was 67 to 100%.

Regarding `CN1CCN(C(=O)c2ccc(Nc3cc(NC(=O)Nc4c(Cl)cc(Cl)cc4Cl)ncn3)cc2)CC1` [Example 85, 1-{6-[4-(4-Methyl-piperazin-1-carbonyl)-phenylamino]-pyrimidin-4-yl}-3-(2,4,6-trichloro-phenyl)-urea], the melting point lay in the range of 165 to 175 °C. The inhibition at 10 µM on FGFR3 (K650E) (setting [1]) was 27 to 100%. Further, the inhibition at 10 µM on Tek is 12 to 100%. Also, the inhibition at 10 µM on KDR (10 μM, Examples 1 to 169) fell in the range of 67 to 100%.

In turn, `CN1CCN(c2cccc(Nc3cc(NC(=O)Nc4c(Cl)cc(Cl)cc4Cl)ncn3)c2)CC1` [Example 86, 1-{6-[3-(4-Methyl-piperazin-1-yl)-phenylamino]-pyrimidin-4-yl}-3-(2,4,6-trichloro-phenyl)-urea] gave a melting point of 138 to 142 °C. Besides, the inhibition at 10 µM on FGFR3 (K650E) (setting [1]) fell in the range of 27 to 100%. The inhibition at 10 µM at Tek fell in the range of 12 to 100%. At KDR (10 μM, Examples 1 to 169), the inhibition at 10 µM fell in the range of 67 to 100%.

`CC(C)(C)[Si](C)(C)O[C@H]1CC[C@H](Nc2cc(NC(=O)Nc3c(Cl)cc(Cl)cc3Cl)ncn2)CC1` [Example 87, 1-{6-[(trans)-4-(tert-Butyl-dimethyl-silanyloxy)-cyclohexylamino]-pyrimidin-4-yl}-3-(2,4,6-trichloro-phenyl)-urea] displayed a melting point of 198 to 199 °C. Also, the inhibition at 10 µM on FGFR3 (K650E) (setting [2]) was 27 to 100%. The inhibition at 10 µM on Tek lay in the range of 12 to 100%. On KDR, the inhibition at 10 µM lay within 67 to 100%.

In turn, `O=C(Nc1cc(N[C@H]2CC[C@H](O)CC2)ncn1)Nc1c(Cl)cc(Cl)cc1Cl` [Example 88, 1-[6-((trans)-4-Hydroxy-cyclohexylamino)-pyrimidin-4-yl]-3-(2,4,6-trichloro-phenyl)-urea] returned a melting point of 171 to 173 °C. For the same compound, on FGFR3 (K650E) (setting [1]), the inhibition at 10 µM lay within 27 to 100%. For the same compound, the inhibition at 10 µM on Tek fell in the range of 12 to 100%. The inhibition at 10 µM on KDR (10 μM, Examples 1 to 169) was 67 to 100%.

The compound `Cc1cccc(Cl)c1NC(=O)Nc1cc(N[C@H]2CC[C@H](O[Si](C)(C)C(C)(C)C)CC2)ncn1` [Example 89, 1-{6-[(trans)-4-(tert-Butyl-dimethyl-silanyloxy)-cyclohexylamino]-pyrimidin-4-yl}-3-(2-chloro-6-methyl-phenyl)-urea] displayed a melting point of 218 to 220 °C. Also, the inhibition at 10 µM at FGFR3 (K650E) (setting [2]) is 27 to 100%. For the same compound, at Tek, the inhibition at 10 µM is 12 to 100%. The inhibition at 10 µM on KDR fell in the range of 67 to 100%.

`Cc1cccc(Cl)c1NC(=O)Nc1cc(N[C@H]2CC[C@H](O)CC2)ncn1` [Example 90, 1-(2-Chloro-6-methyl-phenyl)-3-[6-((trans)-4-hydroxy-cyclohexylamino)-pyrimidin-4-yl]-urea] came in with a melting point of 149 to 152 °C. Moreover, the inhibition at 10 µM on FGFR3 (K650E) (setting [1]) lay within 27 to 100%. Moreover, the inhibition at 10 µM at Tek lay in the range of 12 to 100%. Further, on KDR (10 μM, Examples 1 to 169), the inhibition at 10 µM lay within 67 to 100%.

`CC(C)(C)[Si](C)(C)O[C@H]1CC[C@H](Nc2cc(NC(=O)Nc3c(Cl)cccc3Cl)ncn2)CC1` [Example 91, 1-{6-[(trans)-4-(tert-Butyl-dimethyl-silanyloxy)-cyclohexylamino]-pyrimidin-4-yl}3-(2,6-dichloro-phenyl)-urea] showed a melting point of 211 to 212 °C. The inhibition at 10 µM on FGFR3 (K650E) (setting [2]) was in the range of 27 to 100%. Besides, the inhibition at 10 µM on Tek lay in the range of 12 to 100%. Also, the inhibition at 10 µM at KDR lay within 67 to 100%.

For the compound `Cc1ccc(NC(=O)c2cccc(C(F)(F)F)c2)cc1NC(=O)N(C)c1cc(Nc2ccc(N3CCN(C)CC3)cc2)ncn1` [Example 171, N-[4-Methyl-3-(3-methyl-3-{6-[4-(4-methyl-piperazin-1-yl)-phenyl-amino]-pyrimidin-4-yl}-ureido)-phenyl]-3-trifluoromethyl-benzamide], the melting point was in the range of 189.5 to 191 °C. Further, at FGFR3 (K650E) (setting [3]), the inhibition at 10 µM lay in the range of 56 to 98%. Further, at KDR (10 μM, Examples 171 to 206), the inhibition at 10 µM lay within 87 to 100%. This compound also had an inhibition at 10 µM against c-Abl of 79 to 100%.

As for `Cc1ccc(NC(=O)c2ccc(CN3CCN(C)CC3)c(C(F)(F)F)c2)cc1NC(=O)N(C)c1cc(N)ncn1` [Example 194, N-{3-[3-(6-Amino-pyrimidin-4-yl)-3-methyl-ureido]-4-methyl-phenyl}-4-(4-methyl-piperazin-1-ylmethyl)-3-trifluoromethyl-benzamide], the melting point fell in the range of 191.5 to 193 °C. The inhibition at 10 µM at FGFR3 (K650E) (setting [3]) was in the range of 56 to 98%. In addition, the inhibition at 10 µM on KDR (10 μM, Examples 171 to 206) lay within 87 to 100%. Further, the inhibition at 10 µM on c-Abl is 79 to 100%.
